Test results taken from patent publication US20050131041A1, “Azole derivatives as antifungal agents” (priority 2002, published 2005).
≈ marks a conversion by molar mass, not a printed value. Where two headings read alike, the source gives them in different places.

Experiments:
[1] = tested on: Candida parapsilosis 22019 (QC); experiment: MIC determination (NCCLS M27A/M38P broth dilution); type: cell-based
Candida krusei 6258 (QC) = experiment: MIC determination (NCCLS M27A/M38P broth dilution); type: cell-based
[2] = tested on: Paecilomyces variotti 22319(QC); experiment: MIC determination (NCCLS M27A/M38P broth dilution); type: cell-based
[3] = tested on: Cryptococcus neoformans M 106; experiment: MIC determination (NCCLS M27A/M38P broth dilution); type: cell-based
Candida tropicalis 750 = experiment: MIC determination (NCCLS M27A/M38P broth dilution); type: cell-based
Candida krusei 766.1 = experiment: MIC determination (NCCLS M27A/M38P broth dilution); type: cell-based
Candida albicans Y-01-19 = experiment: MIC determination (NCCLS M27A/M38P broth dilution); type: cell-based
Candida albicans 1122 = experiment: MIC determination (NCCLS M27A/M38P broth dilution); type: cell-based
Candida glabrata 90030 = experiment: MIC determination (NCCLS M27A/M38P broth dilution); type: cell-based
[4] = tested on: Aspergillus fumigatus 1008; experiment: MIC determination (NCCLS M27A/M38P broth dilution); type: cell-based
[5] = tested on: Aspergillus fumigatus Si-I; experiment: MIC determination (NCCLS M27A/M38P broth dilution); type: cell-based
ergosterol P450DM [6] = molecular target: ergosterol P450DM (Candida albicans, UniProt P10613); conditions: cited from earlier work
ergosterol P450DM [7] = conditions: cited from earlier work
Cryptococcus neoformans = conditions: cited from earlier work
[8] = Candida krusei 6258 (QC), RPMI 1640, MOPS pH 7
[9] = Paecilomyces variotti 22319(QC), RPMI 1640, MOPS pH 7
[10] = Aspergillus fumigatus 1008, RPMI 1640, MOPS pH 7
[11] = Aspergillus fumigatus Si-I, RPMI 1640, MOPS pH 7
[12] = RPMI 1640, MOPS pH 7, read-out: MIC
[13] = Pichia kudriavzevii, Candida krusei 6258 (QC), RPMI 1640, MOPS pH 7, read-out: MIC
[14] = Paecilomyces variotti 22319(QC), RPMI 1640, MOPS pH 7, read-out: MIC
[15] = M106, RPMI 1640, MOPS pH 7, read-out: MIC
[16] = Pichia kudriavzevii, RPMI 1640, MOPS pH 7, read-out: MIC
[17] = Y0119, RPMI 1640, MOPS pH 7, read-out: MIC
[18] = Nakaseomyces glabratus, RPMI 1640, MOPS pH 7, read-out: MIC
[19] = Aspergillus fumigatus 1008, RPMI 1640, MOPS pH 7, read-out: MIC

ergosterol P450DM (Candida albicans, UniProt P10613), sequence (P10613 whole entry): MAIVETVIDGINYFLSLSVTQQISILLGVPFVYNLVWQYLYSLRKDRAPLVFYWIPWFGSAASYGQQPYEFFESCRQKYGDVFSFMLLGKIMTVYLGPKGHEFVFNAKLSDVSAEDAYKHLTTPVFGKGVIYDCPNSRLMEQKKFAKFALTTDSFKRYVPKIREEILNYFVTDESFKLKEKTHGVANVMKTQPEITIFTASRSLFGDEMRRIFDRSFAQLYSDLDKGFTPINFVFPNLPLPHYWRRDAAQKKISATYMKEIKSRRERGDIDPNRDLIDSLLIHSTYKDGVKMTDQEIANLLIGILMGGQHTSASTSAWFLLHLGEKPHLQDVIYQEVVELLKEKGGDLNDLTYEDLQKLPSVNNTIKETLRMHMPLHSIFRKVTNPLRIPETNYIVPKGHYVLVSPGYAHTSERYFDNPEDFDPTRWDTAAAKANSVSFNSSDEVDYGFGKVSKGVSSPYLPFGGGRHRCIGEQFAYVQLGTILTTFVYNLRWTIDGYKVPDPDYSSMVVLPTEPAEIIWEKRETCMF

Compound	MIC ([1]; RPMI 1640, MOPS pH 7) [µg/mL]	MIC (Candida krusei 6258 (QC); [8]) [µg/mL]	MIC [2, 9]	MIC ([3]; RPMI 1640, MOPS pH 7) [µg/mL]	MIC (Candida tropicalis 750; RPMI 1640, MOPS pH 7) [µg/mL]	MIC (Candida krusei 766.1; RPMI 1640, MOPS pH 7) [µg/mL]	MIC (Candida albicans Y-01-19; RPMI 1640, MOPS pH 7) [µg/mL]	MIC (Candida albicans 1122; RPMI 1640, MOPS pH 7) [µg/mL]	MIC (Candida glabrata 90030; RPMI 1640, MOPS pH 7) [µg/mL]	MIC [4, 10] [µg/mL]	MIC [5, 11] [µg/mL]	MIC [1, 12] [µg/mL]	MIC [3, 15] [µg/mL]	MIC (Candida tropicalis 750; [12]) [µg/mL]	MIC (Candida krusei 766.1; [16]) [µg/mL]	MIC (Candida albicans Y-01-19; [17]) [µg/mL]	MIC (Candida albicans 1122; [12]) [µg/mL]	MIC (Candida glabrata 90030; [18]) [µg/mL]	further results
C[C@@H]1[C@H](O)[C@@H](C)/C=C/C=C/C=C/C=C/C=C/C=C/C=C/[C@H](O[C@@H]2O[C@H](C)[C@@H](O)[C@H](N)[C@@H]2O)C[C@@H]2O[C@](O)(C[C@@H](O)C[C@@H](O)[C@H](O)CC[C@@H](O)C[C@@H](O)CC(=O)O[C@H]1C)C[C@H](O)[C@H]2C(=O)O [AMB, AMPHOTERICIN B]	0.125 (≈ 0.135 µM)	0.25 (≈ 0.271 µM)	0.25 µg/mL (≈ 0.271 µM)	0.06 (≈ 0.0649 µM)	0.125 (≈ 0.135 µM)	0.25 (≈ 0.271 µM)	0.25 (≈ 0.271 µM)	0.25 (≈ 0.271 µM)	0.5 (≈ 0.541 µM)	0.25 (≈ 0.271 µM)	0.5 (≈ 0.541 µM)								
OC(Cn1cncn1)(Cn1cncn1)c1ccc(F)cc1F [FLU, FLUCONAZOLE]												2 (≈ 6.53 µM)	4 (≈ 13.1 µM)	2 (≈ 6.53 µM)	64 (≈ 209 µM)	16 (≈ 52.2 µM)	0.5 (≈ 1.63 µM)	16 (≈ 52.2 µM)	MIC (Candida krusei 6258 (QC); [13]): 32 µg/mL (≈ 104 µM); MIC [2, 14]: 2 µg/mL (≈ 6.53 µM); MIC ([4]; Aspergillus fumigatus, 1008, pH 7): > 128 µg/mL; MIC ([5]; Aspergillus fumigatus, pH 7): > 128 µg/mL
CCC(C)n1ncn(-c2ccc(N3CCN(c4ccc(OCC5COC(Cn6cncn6)(c6ccc(Cl)cc6Cl)O5)cc4)CC3)cc2)c1=O (centres unmarked) [ITRA, ITRACONAZOLE]												0.03 (≈ 0.0425 µM)	0.03 (≈ 0.0425 µM)	0.004 (≈ 0.00567 µM)	0.25 (≈ 0.354 µM)	0.25 (≈ 0.354 µM)	0.016 (≈ 0.0227 µM)	0.5 (≈ 0.709 µM)	MIC (Candida krusei 6258 (QC); Pichia kudriavzevii, pH 7): 0.125 µg/mL (≈ 0.177 µM); MIC ([2]; Paecilomyces, pH 7): 0.125 µg/mL (≈ 0.177 µM); MIC [4, 19]: 0.25 µg/mL (≈ 0.354 µM); MIC ([5]; Aspergillus fumigatus, pH 7): 0.125 µg/mL (≈ 0.177 µM)
C[C@@H](c1ncncc1F)[C@](O)(Cn1cncn1)c1ccc(F)cc1F [VORI, VORICONAZOLE]												0.03 (≈ 0.0859 µM)	0.06 (≈ 0.172 µM)	0.016 (≈ 0.0458 µM)	1 (≈ 2.86 µM)	0.5 (≈ 1.43 µM)	0.16 (≈ 0.458 µM)	1 (≈ 2.86 µM)	MIC (Candida krusei 6258 (QC); [13]): 0.25 µg/mL (≈ 0.716 µM); MIC [2, 14]: 0.06 µg/mL (≈ 0.172 µM); MIC [4, 19]: 0.25 µg/mL (≈ 0.716 µM); MIC ([5]; Aspergillus fumigatus Si-I, RPMI 1640, MOPS pH 7, read-out: MIC): 0.25 µg/mL (≈ 0.716 µM); greater inhibition of ergosterol P450DM compared to fluconazole (ergosterol P450DM [6]): 1.6 fold; greater inhibition of ergosterol P450DM compared to fluconazole (ergosterol P450DM [7]): 160 fold
CC[C@H](C)C[C@H](C)CCCCCCCCC(=O)N[C@H]1C[C@@H](O)[C@@H](NCCN)NC(=O)[C@@H]2[C@@H](O)CCN2C(=O)[C@H]([C@H](O)CCN)NC(=O)[C@H]([C@H](O)[C@@H](O)c2ccc(O)cc2)NC(=O)[C@@H]2C[C@@H](O)CN2C(=O)[C@H]([C@@H](C)O)NC1=O [caspofungin, Caspofungin]																			activity against Cryptococcus neoformans (Cryptococcus neoformans): not active
C[C@@H](n1ccn(-c2ccc(-n3cnnn3)cc2)c1=S)[C@](O)(Cn1cncn1)c1ccc(F)cc1F [compound 4, 1-[(1R,2R)-2-(2,4-Difluorophenyl)-2-hydroxy-1-methyl-3-(1H-1,2,4-triazol-1-yl)propyl]-3-[4-(1H-1-tetrazolyl)phenyl]-2-(1H,3H)-thioimidazolone]	<0.00025	0.25 (≈ 0.505 µM)	0.016 µg/mL (≈ 0.0323 µM)	0.03 (≈ 0.0605 µM)	0.004 (≈ 0.00807 µM)	0.25 (≈ 0.505 µM)	0.25 (≈ 0.505 µM)	0.06 (≈ 0.121 µM)	0.06 (≈ 0.121 µM)	0.25 (≈ 0.505 µM)	0.25 (≈ 0.505 µM)								
C[C@@H](n1ccn(-c2ccc(-n3ncnn3)cc2)c1=S)[C@](O)(Cn1cncn1)c1ccc(F)cc1F [compound 5, 1-[(1R,2R)-2-(2,4-Difluorophenyl)-2-hydroxy-1-methyl-3-(1H-1,2,4-triazol-1-yl)propyl]-3-[4-(2H-2-tetrazolyl)phenyl]-2-(1H,3H)-thioimidazolone]	<0.00025	0.06 (≈ 0.121 µM)	Long trailing effect	<0.00025	<0.00025	0.5 (≈ 1.01 µM)	0.5 (≈ 1.01 µM)	<0.00025	1 (≈ 2.02 µM)	0.125 (≈ 0.252 µM)	0.016 (≈ 0.0323 µM)								
C[C@@H](n1ccn(-c2ccc(OCC(F)(F)C(F)F)cc2)c1=S)[C@](O)(Cn1cncn1)c1ccc(F)cc1F [compound 6, 1-[(1R,2R)-2-(2,4-Difluorophenyl)-2-hydroxy-1-methyl-3-(1H-1,2,4-triazol-1-yl)propyl]-3-[4-(2,2,3,3-tetrafluoropropoxy)phenyl]-2-(1H,3H)-thioimidazolone]	<0.00025	0.125 (≈ 0.224 µM)	Long trailing effect	<0.00025	<0.00025	0.5 (≈ 0.897 µM)	0.5 (≈ 0.897 µM)	<0.00025	2 (≈ 3.59 µM)	0.125 (≈ 0.224 µM)	0.016 (≈ 0.0287 µM)								
